From patent US10508104B2, “6-hydroxy-5-(phenyl/heteroarylsulfonyl)pyrimidin-4(1H)-one as APJ agonists” (Bristol-Myers Squibb Company, priority 2016, dated 2019)

Biological target: human APJ receptor (Homo sapiens (Human), UniProt P35414)
Experiment: Intracellular cAMP accumulation assay (APJ hcAMP, HTRF)
Format: cell-based
Conditions: HEK293 cells stably expressing human APJ receptor; inhibition of forskolin-mediated cAMP production; read-out: Human APJ cAMP EC50 Potency range
Outline: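 HEK293 cells stably expressing human APJ, 5,000 per well, incubated 30 min at rt with compound, […] and 2 μM forskolin. cAMP measured by HTRF against a cAMP standard curve as inhibition of forskolin-driven production. EC50 from variable-slope sigmoidal fit.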

Chain of human APJ receptor (P35414 whole entry): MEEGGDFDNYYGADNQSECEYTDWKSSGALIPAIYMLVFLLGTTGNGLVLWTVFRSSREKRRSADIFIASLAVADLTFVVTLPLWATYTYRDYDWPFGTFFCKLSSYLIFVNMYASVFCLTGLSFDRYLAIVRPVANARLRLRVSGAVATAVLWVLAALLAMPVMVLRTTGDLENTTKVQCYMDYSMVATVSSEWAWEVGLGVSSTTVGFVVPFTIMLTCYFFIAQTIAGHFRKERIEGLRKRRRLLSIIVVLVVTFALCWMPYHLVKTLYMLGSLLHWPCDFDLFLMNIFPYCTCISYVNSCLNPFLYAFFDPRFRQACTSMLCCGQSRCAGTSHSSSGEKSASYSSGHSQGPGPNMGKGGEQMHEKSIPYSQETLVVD

Row | SMILES | EC50 [nM]
1 | COC[C@@H](c1cc(F)cc(F)c1)n1c(COC(C)C)nc(=O)c(S(=O)(=O)c2ccc(-c3cccnc3C)cc2)c1O [Example 379, 1-[(1R)-1-(3,5-difluorophenyl)-2-methoxyethyl]-6-hydroxy-5-[4-(2-methylpyridin-3-yl)benzenesulfonyl]-2-[(propan-2-yloxy)methyl]-1,4-dihydropyrimidin-4-one] | 0.01 to 10
2 | CCCCc1nc(=O)c(S(=O)(=O)c2ccc(-c3cccc(C(=O)NC4CC4)c3F)cc2)c(O)n1[C@@H](CC)c1cccc(C#N)c1 [Example 534, 4′-({2-butyl-1-[(1S)-1-(3-cyanophenyl)propyl]-6-hydroxy-4-oxo-1,4-dihydropyrimidin-5-yl}sulfonyl)-N-cyclopropyl-2-fluoro-[1,1′-biphenyl]-3-carboxamide] | 0.01 to 10
3 | CCCCc1nc(=O)c(S(=O)(=O)[C@H]2CC[C@@H](OCc3ccccc3)CC2)c(O)n1-c1c(CC)cccc1CC [Example 365, 2-butyl-1-(2,6-diethylphenyl)-6-hydroxy-5-{[(1s,4s)-4-(benzyloxy)cyclohexyl]sulfonyl}-1,4-dihydropyrimidin-4-one] | 0.01 to 10
4 | CCCCc1nc(=O)c(S(=O)(=O)c2ccc(-c3ccc(F)cc3)cc2)c(O)n1-c1c(OC)cccc1OC [Example 7, 2-Butyl-1-(2,6-dimethoxyphenyl)-5-((4′-fluoro-[1,1′-biphenyl]-4-yl)sulfonyl)-6-hydroxypyrimidin-4(1H)-one] | 0.01 to 10
5 | CCCCc1nc(=O)c(S(=O)(=O)c2ccc(-c3ccncc3C)cc2)c(O)n1C(c1cccc(C#N)c1)C1CC1 (stereo not drawn) [Example 462, 3-({2-butyl-6-hydroxy-5-[4-(3-methylpyridin-4-yl)benzenesulfonyl]-4-oxo-1,4-dihydropyrimidin-1-yl}(cyclopropyl)methyl) benzonitrile] | 0.01 to 10
6 | CC(C)OCc1nc(=O)c(S(=O)(=O)c2ccc(-c3cnccc3C#N)cc2)c(O)n1[C@H](c1cccc(C#N)c1)C1CC1 [Example 414, 3-[4-({1-[(S)-(3-cyanophenyl)(cyclopropyl)methyl]-6-hydroxy-4-oxo-2-[(propan-2-yloxy)methyl]-1,4-dihydropyrimidin-5-yl}sulfonyl)phenyl] pyridine-4-carbonitrile] | 0.01 to 10
7 | COC[C@@H](c1cc(F)cc(F)c1)n1c(COC(C)C)nc(=O)c(S(=O)(=O)c2ccc(-c3cncc(C#N)c3)cc2)c1O [Example 391, 5-[4-({1-[(1R)-1-(3,5-difluorophenyl)-2-methoxyethyl]-6-hydroxy-4-oxo-2-[(propan-2-yloxy)methyl]-1,4-dihydropyrimidin-5-yl}sulfonyl)phenyl] pyridine-3-carbonitrile] | 0.01 to 10
8 | CCCCc1nc(=O)c(S(=O)(=O)c2ccc(C(=O)NCC(F)(F)F)cc2)c(O)n1-c1c(OC)cccc1OC [Example 90, 4-((2-Butyl-1-(2,6-dimethoxyphenyl)-6-hydroxy-4-oxo-1,4-dihydropyrimidin-5-yl)sulfonyl)-N-(2,2,2-trifluoroethyl)benzamide] | 0.01 to 10
9 | CCCCc1nc(=O)c(S(=O)(=O)c2ccc(-c3ccc(F)nc3C)cc2)c(O)n1[C@H](c1cccc(C#N)c1)C1CC1 [Example 479, 3-[(S)-{2-butyl-5-[4-(6-fluoro-2-raethylpyridin-3-yl)benzenesulfonyl]-6-hydroxy-4-oxo-1,4-dihydropyrimidin-1-yl}(cyclopropyl)methyl] benzonitrile] | 0.01 to 10
10 | CCCCc1nc(=O)c(S(=O)(=O)c2ccc(-c3ccc(F)nc3C)cc2)c(O)n1C(c1cccc(C#N)c1)C1CC1 (stereo not drawn) [Example 461, 3-({2-butyl-5-[4-(6-fluoro-2-methylpyridin-3-yl)benzenesulfonyl]-6-hydroxy-4-oxo-1,4-dihydropyrimidin-1-yl}(cyclopropyl)methyl) benzonitrile] | 0.01 to 10
11 | CCOCc1nc(=O)c(S(=O)(=O)c2ccc(-c3ccncc3C)cc2)c(O)n1[C@@H](COC)c1cc(F)cc(F)c1 [Example 387, 1-[(1R)-1-(3,5-difluorophenyl)-2-methoxyethyl]-2-(ethoxymethyl)-6-hydroxy-5-[4-(3-methylpyridin-4-yl)benzenesulfonyl]-1,4-dihydropyrimidin-4-one] | 0.01 to 10
12 | Cc1c(-c2ccc(S(=O)(=O)c3c(O)n([C@H](c4cccc(C#N)c4)C4CC4)c(COC(C)C)nc3=O)cc2)ccnc1F [Example 419, 3-[(S)-cyclopropyl({5-[4-(2-fluoro-3-methylpyridin-4-yl)benzenesulfonyl]-6-hydroxy-4-oxo-2-[(propan-2-yloxy)methyl]-1,4-dihydropyrimidin-1-yl})methyl]benzonitrile] | 0.01 to 10
13 | CCCCc1nc(=O)c(S(=O)(=O)c2ccc(-c3ccncc3C)cc2)c(O)n1[C@H]1CCc2c(C#N)cccc21 [Example 541, (1S)-1-{2-butyl-6-hydroxy-5-[4-(3-methylpyridin-4-yl)benzenesulfonyl]-4-oxo-1,4-dihydropyrimidin-1-yl}-2,3-dihydro-1H-indene-4-carbonitrile] | 0.01 to 10

Same assay, conditions: human APJ, cAMP accumulation; read-out: Human APJ cAMP EC50 Potency range

Row | SMILES | EC50 [nM]
14 | Cc1ncccc1-c1ccc(S(=O)(=O)c2c(O)n([C@H]3CCc4ccccc43)c(COC(C)C)nc2=O)cc1 [Example 330, 1-[(1S)-2,3-dihydro-1H-inden-1-yl]-6-hydroxy-5-[4-(2-methylpyridin-3-yl)benzenesulfonyl]-2-[(propan-2-yloxy)methyl]-1,4-dihydropyrimidin-4-one] | 0.01 to 10
15 | CC[C@@H](c1ccccc1)n1c(C2CCCC2)nc(=O)c(S(=O)(=O)c2ccc(-c3cncc(C)c3)cc2)c1O [Example 281, 2-cyclopentyl-6-hydroxy-5-[4-(5-methylpyridin-3-yl)benzenesulfonyl]-1-[(1S)-1-phenylpropyl]-1,4-dihydropyrimidin-4-one] | 0.01 to 10
16 | CCCCCc1nc(=O)c(S(=O)(=O)c2ccc(-c3cncc(F)c3)cc2)c(O)n1[C@@H](COC)c1ccccc1 [Example 248, 5-[4-(5-fluoropyridin-3-yl)benzenesulfonyl]-6-hydroxy-1-[(1R)-2-methoxy-1-phenylethyl]-2-pentyl-1,4-dihydropyrimidin-4-one] | 0.01 to 10
17 | CCCCc1nc(O)c(S(=O)(=O)c2ccc(Br)cc2)c(=O)n1[C@@H](CC)c1cccc(F)c1 [Example 216, 5-(4-bromobenzenesulfonyl)-2-butyl-3-[(1S)-1-(3-fluorophenyl)propyl]-6-hydroxy-3,4-dihydropyrimidin-4-one] | 0.01 to 10
18 | COc1cccc(OC)c1-n1c(-c2cncc(C)c2)nc(=O)c(S(=O)(=O)c2ccc(-c3ccnc(F)c3C)cc2)c1O [Example 274, 1-(2,6-dimethoxyphenyl)-5-[4-(2-fluoro-3-methylpyridin-4-yl)benzenesulfonyl]-6-hydroxy-2-(5-methylpyridin-3-yl)-1,4-dihydropyrimidin-4-one] | 0.01 to 10
19 | CCCCc1nc(=O)c(S(=O)(=O)c2ccc(-c3ccc(F)nc3C)cc2)c(O)n1[C@@H](CC)c1ccc2c(c1)OCO2 [Example 220, 1-[(1S)-1-(2H-1,3-benzodioxol-5-yl)propyl]-2-butyl-5-[4-(6-fluoro-2-methylpyridin-3-yl)benzenesulfonyl]-6-hydroxy-1,4-dihydropyrimidin-4-one] | 0.01 to 10

Same assay, conditions: human APJ, intracellular cAMP accumulation; read-out: Human APJ cAMP EC50 Potency range

Row | SMILES | EC50 [nM]
20 | CCCCc1nc(=O)c(S(=O)(=O)c2ccc(-c3cccnc3C)cc2)c(O)n1[C@@H](CC)c1cccc(OC)c1 [Example 165, 2-butyl-6-hydroxy-1-[(1S)-1-(3-methoxyphenyl)propyl]-5-[4-(2-methylpyridin-3-yl)benzenesulfonyl]-1,4-dihydropyrimidin-4-one] | 0.01 to 10
21 | CCCCc1nc(=O)c(S(=O)(=O)c2ccc(-n3ccc(C)cc3=O)cc2)c(O)n1-c1c(OC)cccc1OC [Example 74, 2-butyl-1-(2,6-dimethoxyphenyl)-6-hydroxy-5-[4-(4-methyl-2-oxo-1,2-dihydropyridin-1-yl)benzenesulfonyl]-1,4-dihydropyrimidin-4-one] | 0.01 to 10
22 | CCCCc1nc(=O)c(S(=O)(=O)c2ccc(-c3ccc(OC)nc3C)cc2)c(O)n1[C@H]1CCc2ccccc21 [Example 167, 2-butyl-1-[(1S)-2,3-dihydro-1H-inden-1-yl]-6-hydroxy-5-[4-(6-methoxy-2-methylpyridin-3-yl)benzenesulfonyl]-1,4-dihydropyrimidin-4-one] | 0.01 to 10
23 | CCCCc1nc(=O)c(S(=O)(=O)c2ccc(-c3ccc(F)cc3C)cc2)c(O)n1-c1c(OC)cccc1OC [Example 26, 2-butyl-1-(2,6-dimethoxyphenyl)-5-[4-(4-fluoro-2-methylphenyl)benzenesulfonyl]-6-hydroxy-1,4-dihydropyrimidin-4-one] | 0.01 to 10
24 | CCCCc1nc(=O)c(S(=O)(=O)c2ccc(-c3ccnc(F)c3C)cc2)c(O)n1[C@@H](COC)c1ccccc1 [Example 148, 2-butyl-5-[4-(2-fluoro-3-methylpyridin-4-yl)benzenesulfonyl]-6-hydroxy-1-[(1R)-2-methoxy-1-phenylethyl]-1,4-dihydropyrimidin-4-one] | 0.01 to 10
25 | CCCCc1nc(=O)c(S(=O)(=O)c2ccc(-c3cnc(F)cc3C)cc2)c(O)n1[C@H]1CCc2ccccc21 [Example 170, 2-butyl-1-[(1S)-2,3-dihydro-1H-inden-1-yl]-5-[4-(6-fluoro-4-methylpyridin-3-yl)benzenesulfonyl]-6-hydroxy-1,4-dihydropyrimidin-4-one] | 0.01 to 10
26 | CCCCc1nc(=O)c(S(=O)(=O)C2CCN(Cc3cccc(F)c3F)CC2)c(O)n1-c1c(CC)cccc1CC [Example 109, 2-butyl-1-(2,6-diethylphenyl)-5-({1-[(2,3-difluorophenyl)methyl]piperidin-4-yl}sulfonyl)-6-hydroxy-1,4-dihydropyrimidin-4-one] | 0.01 to 10
27 | CCCCc1nc(=O)c(S(=O)(=O)c2ccc(-c3ccnc(C)c3)cc2)c(O)n1[C@@H](COC)c1ccccc1 [Example 153, 2-butyl-6-hydroxy-1-[(1R)-2-methoxy-1-phenylethyl]-5-[4-(2-methylpyridin-4-yl)benzenesulfonyl]-1,4-dihydropyrimidin-4-one] | 0.01 to 10
